According to patent publication US12522587B2, “Cancer treatments targeting cancer stem cells” (Remedy Plan, Inc., priority 2018, dated 2026):
Like-named read-outs stand apart in the source and are kept apart here.

Key:
[1] = tested on: MV-4-11 cells; assay: Cell viability in MV-4-11 cells (CellTiter Glo2, 4 days); type: cell-based; settings: Homo sapiens, MV4-11, 96 h
Description: Approximately 10,000 MV-4-11 cells per well of a 96-well plate were treated with DMSO (no drug control) or each compound in Table 6 in an 8-point dose response for 4 days. Cell viability was measured using CellTiter Glo2. The IC50 of each compound was determined using CDD Vault.

[2] = tested on: RS4;11 cells; assay: Cell viability in RS4;11 cells (CellTiter Glo2, 4 days); type: cell-based; settings: Homo sapiens, 96 h
Description: Approximately 10,000 RS4;11 cells per well of a 96-well plate were treated with DMSO (no drug control) or each compound in Table 6 in an 8-point dose response for 4 days. Cell viability was measured using CellTiter Glo2. The IC50 of each compound was determined using CDD Vault.

[3] = tested on: AGS cells; assay: Cell viability in AGS cells (CellTiter Glo2, 8-point dose response, 4 days); type: cell-based, human
Description: AGS cells were treated with DMSO (no drug control) or each compound in Table 5 in an 8-point dose response for 4 days. Cell viability was measured using CellTiter Glo2. The IC50 of each compound was determined using CDD Vault.

Structure (SMILES)	IC50 [1]	IC50 [2]	IC50 [3]	IC50 ([3]; Homo sapiens, AGS, 96 h)
CCC(=O)N1CCc2c1ccc(-c1ccc(C(=O)NCc3cccnc3)cc1)c2C [Compound I-80, 4-(4-methyl-1-propionylindolin-5-yl)-N-(pyridin-3-ylmethyl)benzamide]	565 nM	886 nM	653 nM	490 nM
CCC(=O)N(C)c1ccc(-c2ccc(C(=O)NCc3cccnc3)cc2)cc1 [Compound I-45, 4′-(N-methylpropionamido)-N-(pyridin-3-ylmethyl)-[1,1′-biphenyl]-4-carboxamide]	218 nM	689 nM	4290 nM	4450 nM
